Measured values as given in US20070208166A1, “Tao Kinase Modulators And Method Of Use” (Exelixis, Inc., priority 2003, published 2007).

Tests used:
Format in all cases: biochemical
[1] = molecular target: T1, KIAA 1361 (baculovirus expressed human KIAA 1361 kinase domain 2-322) (Homo sapiens, UniProt Q7L7X3); assay: KIAA 1361 Luciferase-Coupled Chemiluminescent Kinase assay (LCCA); conditions: 2 μM ATP, 10 μM MBP, 12 nM KIAA 1361, 2 hours; read-out: KIAA1361 inhibition IC50
T1 construct: human KIAA 1361 kinase domain 2-322; made in house
T1 sequence (Q7L7X3 2-322): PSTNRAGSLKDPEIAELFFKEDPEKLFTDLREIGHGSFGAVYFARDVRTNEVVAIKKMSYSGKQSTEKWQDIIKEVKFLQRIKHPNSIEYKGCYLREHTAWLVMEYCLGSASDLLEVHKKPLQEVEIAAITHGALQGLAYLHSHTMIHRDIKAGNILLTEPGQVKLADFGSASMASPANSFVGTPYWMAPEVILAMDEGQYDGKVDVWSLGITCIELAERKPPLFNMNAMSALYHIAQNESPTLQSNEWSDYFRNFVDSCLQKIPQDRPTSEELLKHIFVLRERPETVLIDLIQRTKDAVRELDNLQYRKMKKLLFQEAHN
Procedure, shortened: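 KIAA 1361 kinase domain 2-322 (baculovirus, 12 nM) with 2 μM ATP and 10 μM MBP in Tris pH 7.5, MgCl2, MnCl2; 2 h, ambient. Remaining ATP read by luciferase chemiluminescence; 10 concentrations, IC50 by four-parameter fit.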

[2] = molecular target: T2, JIK (Homo sapiens, UniProt Q9H2K8); assay: JIK Luciferase-Coupled Chemiluminescent Kinase assay (LCCA); conditions: 2 μM ATP, 10 μM MBP, 6 nM JIK, 2 hours; read-out: JIK inhibition IC50
T2 construct: 6 nM JIK (baculovirus expressed human KIAA 1361 kinase domain2-318); made in house
T2 sequence (Q9H2K8 2-318): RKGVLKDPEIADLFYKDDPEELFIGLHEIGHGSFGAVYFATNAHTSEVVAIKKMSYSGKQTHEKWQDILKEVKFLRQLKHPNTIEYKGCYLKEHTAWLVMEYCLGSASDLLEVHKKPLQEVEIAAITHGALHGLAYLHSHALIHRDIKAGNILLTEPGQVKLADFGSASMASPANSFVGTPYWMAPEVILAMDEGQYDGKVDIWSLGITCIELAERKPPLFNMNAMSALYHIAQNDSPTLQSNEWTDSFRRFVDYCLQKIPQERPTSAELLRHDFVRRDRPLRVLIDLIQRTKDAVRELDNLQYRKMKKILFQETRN
Procedure, shortened: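 Baculovirus-expressed human KIAA 1361 kinase domain 2-318 at 6 nM, with 10 μM MBP and 2 μM ATP in Tris pH 7.5 with Mg/Mn, ran 2 h at ambient temperature. Remaining ATP was read by luciferase chemiluminescence. IC50 comes from a 10-concentration four-parameter fit.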

[3] = molecular target: T3, TAO (Homo sapiens, UniProt Q9UL54); assay: TAO Luciferase-Coupled Chemiluminescent Kinase assay (LCCA); conditions: 2 μM ATP, 10 μM MBP, 12 nM TAO, 2 hours; read-out: TAO inhibition IC50
T3 sequence (Q9UL54 1-1235): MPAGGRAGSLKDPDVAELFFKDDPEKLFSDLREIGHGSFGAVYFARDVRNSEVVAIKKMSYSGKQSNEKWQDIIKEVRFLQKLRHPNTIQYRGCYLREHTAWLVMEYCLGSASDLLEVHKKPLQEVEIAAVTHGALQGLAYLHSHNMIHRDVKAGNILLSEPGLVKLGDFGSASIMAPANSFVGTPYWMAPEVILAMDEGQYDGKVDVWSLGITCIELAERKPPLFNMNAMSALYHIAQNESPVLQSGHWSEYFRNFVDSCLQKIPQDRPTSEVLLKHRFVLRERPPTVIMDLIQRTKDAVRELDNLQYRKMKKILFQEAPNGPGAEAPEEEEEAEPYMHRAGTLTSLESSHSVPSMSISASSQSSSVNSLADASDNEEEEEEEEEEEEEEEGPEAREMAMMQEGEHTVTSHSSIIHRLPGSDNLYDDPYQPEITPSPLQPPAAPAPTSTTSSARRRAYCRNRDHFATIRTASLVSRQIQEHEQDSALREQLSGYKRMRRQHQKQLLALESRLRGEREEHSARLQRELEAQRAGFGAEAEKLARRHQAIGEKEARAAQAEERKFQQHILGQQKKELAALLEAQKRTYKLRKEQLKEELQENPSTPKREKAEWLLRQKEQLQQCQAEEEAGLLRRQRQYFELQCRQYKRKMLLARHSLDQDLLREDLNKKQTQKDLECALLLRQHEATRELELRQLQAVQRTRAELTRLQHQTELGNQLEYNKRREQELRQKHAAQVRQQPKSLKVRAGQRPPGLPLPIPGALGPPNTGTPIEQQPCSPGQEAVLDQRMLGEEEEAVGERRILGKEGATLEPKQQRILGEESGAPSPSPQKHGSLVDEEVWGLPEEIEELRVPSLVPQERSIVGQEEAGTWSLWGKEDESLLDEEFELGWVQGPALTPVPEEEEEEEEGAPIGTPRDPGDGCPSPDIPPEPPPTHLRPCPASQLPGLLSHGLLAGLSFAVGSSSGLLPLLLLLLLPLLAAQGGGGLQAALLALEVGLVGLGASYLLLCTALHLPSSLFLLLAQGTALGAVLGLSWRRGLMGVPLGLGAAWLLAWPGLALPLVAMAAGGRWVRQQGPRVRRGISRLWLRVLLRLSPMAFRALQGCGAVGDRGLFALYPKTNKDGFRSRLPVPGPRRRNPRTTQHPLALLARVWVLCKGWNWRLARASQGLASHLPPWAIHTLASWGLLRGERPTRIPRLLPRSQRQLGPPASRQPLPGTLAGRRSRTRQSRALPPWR

| IC50 [1] [µM] | IC50 [2] [µM] | IC50 [3] [µM] | Compound |
| --- | --- | --- | --- |
| 0.05 to 0.5 | < 0.05 | 0.05 to 0.5 | O=C(CC(NC(=O)c1ccccc1)c1ccccc1)NCC(=O)Nc1nc2ccc(O)cc2s1 (stereo not drawn) [Entry 98, N-[3-({2-[(6-hydroxy-1,3-benzothiazol-2-yl)amino]-2-oxoethyl}amino)-3-oxo-1-phenylpropyl]benzamide] |
| < 0.05 | < 0.05 | < 0.05 | CCc1ccc(-c2ccc(C(=O)NCC(=O)N[C@H]3CCCc4ccccc43)cc2)cc1 [Entry 61, 4′-ethyl-N-{2-oxo-2-[(1S)-1,2,3,4-tetrahydronaphthalen-1-ylamino]ethyl}biphenyl-4-carboxamide] |
| 0.5 to 5 | 0.05 to 0.5 | 0.5 to 5 | COc1cc2cc(C(=O)NCC(=O)NC3CCCc4ccccc43)[nH]c2cc1OC (stereo not drawn) [Entry 59, 5,6-bis(methyloxy)-N-(2-oxo-2-(1,2,3,4-tetrahydronaphthalen-1-ylamino)ethyl]-1H-indole-2-carboxamide] |
| 0.5 to 5 | 0.05 to 0.5 | 0.5 to 5 | O=C(CNC(=O)c1ccc2ncccc2c1)NC1CCCc2ccccc21 (stereo not drawn) [Entry 80, N-[2-oxo-2-(1,2,3,4-tetrahydronaphthalen-1-ylamino)ethyl]quinoline-6-carboxamide] |
| 0.5 to 5 | 0.05 to 0.5 | > 5 | CCc1ccc(-c2ccc(C(=O)NCC(=O)NC(C)c3ccccc3)cc2)cc1 (stereo not drawn) [Entry 78, 4′-ethyl-N-{2-oxo-2-[(1-phenylethyl)amino]ethyl}biphenyl-4-carboxamide] |
| > 5 | > 5 | > 5 | O=C(CNC(=O)c1ccc2ncccc2c1)Nc1cccc2c1CCCC2 [Entry 86, N-[2-oxo-2-(5,6,7,8-tetrahydronaphthalen-1-ylamino)ethyl]quinoline-6-carboxamide] |
| 0.05 to 0.5 | 0.05 to 0.5 | > 5 | CCc1ccc(-c2ccc(C(=O)NCC(=O)NCc3ccccc3C(F)(F)F)cc2)cc1 [Entry 79, 4′-ethyl-N-[2-oxo-2-({[2-(trifluoromethyl)phenyl]methyl}amino)ethyl]biphenyl-4-carboxamide] |
| > 5 | > 5 | > 5 | CCc1ccc(-c2ccc(C(=O)NCC(=O)N3Cc4ccccc4C3)cc2)cc1 [Entry 57, N-[2-(1,3-dihydro-2H-isoindol-2-yl)-2-oxoethyl]-4′-ethylbiphenyl-4-carboxamide] |
| > 5 | > 5 | > 5 | O=C(CNC(=O)c1ccc(N2CCCCC2)cc1)Nc1cccc2c1CCCC2 [Entry 89, N-[2-oxo-2-(5,6,7,8-tetrahydronaphthalen-1-ylamino)ethyl]-4-piperidin-1-ylbenzamide] |
| 0.5 to 5 | 0.5 to 5 | 0.5 to 5 | CCc1ccc(-c2ccc(C(=O)NCC(=O)NC3CNCc4ccccc43)cc2)cc1 (stereo not drawn) [Entry 96, 4′-ethyl-N-[2-oxo-2-(1,2,3,4-tetrahydroisoquinolin-4-ylamino)ethyl]biphenyl-4-carboxamide] |
| 0.05 to 0.5 | 0.05 to 0.5 | 0.5 to 5 | O=C(CNC(=O)c1ccc(O)cc1)NC1CCCc2ccccc21 (stereo not drawn) [Entry 56, 4-hydroxy-N-[2-oxo-2-(1,2,3,4-tetrahydronaphthalen-1-ylamino)ethyl]benzamide] |
| < 0.05 | < 0.05 | < 0.05 | COc1ccc2nc(NC(=O)CNC(=O)CC(NC(=O)c3ccccc3)c3ccccc3)sc2c1 (stereo not drawn) [Entry 63, N-{3-[(2-{[6-(methyloxy)-1,3-benzothiazol-2-yl]amino}-2-oxoethyl)amino]-3-oxo-1-phenylpropyl}benzamide] |

Continued, molecule first:

| Compound | IC50 [1] [µM] | IC50 [2] [µM] | IC50 [3] [µM] |
| --- | --- | --- | --- |
| O=C(CN1CCN(S(=O)(=O)CCc2cccc3ccccc23)CC1)Nc1ccccn1 [Entry 41, 2-{4-[(2-naphthalen-1-ylethyl)sulfonyl]piperazin-1-yl)-N-pyridin-2-ylacetamide] | < 0.05 | < 0.05 | 0.05 to 0.5 |
| CCCCOc1ccc(NC(=O)N[C@@H](COCc2ccccc2)C(=O)NCCc2ccccc2)cc1 [Entry 21, N˜2˜-({[4-(butyloxy)phenyl]amino}carbonyl)-N-(2-phenylethyl)-O-(phenylmethyl)serinamide] | 0.05 to 0.5 | 0.05 to 0.5 | > 5 |
| CC(C)c1ccc(NC(=O)N2CCC[C@H]2C(=O)NCc2ccc(Cl)c(Cl)c2)cc1 [Entry 24, (2S)-N˜2˜-[(3,4-dichlorophenyl)methyl]-N˜1˜-[4-(1-methylethyl)phenyl]pyrrolidine-1,2-dicarboxamide] | 0.05 to 0.5 | 0.05 to 0.5 | 0.5 to 5 |
| CC(NC(=O)c1ccc(OCc2ccccc2)cc1)C(=O)NC1CCc2ccccc2C1 (stereo not drawn) [Entry 19, N-[1-methyl-2-oxo-2-(1,2,3,4-tetrahydronaphthalen-2-ylamino)ethyl]-4-[(phenylmethyl)oxy]benzamide] | 0.05 to 0.5 | 0.05 to 0.5 | 0.5 to 5 |
| O=C(NC(C(=O)NC1CCCc2ccccc21)c1cccnc1)c1ccc(/N=N/c2ccccc2)cc1 (stereo not drawn) [Entry 26, N-[2-oxo-1-pyridin-3-yl-2-(1,2,3,4-tetrahydronaphthalen-1-ylamino)ethyl]-4-[(E)-phenyldiazenyl]benzamide] | 0.5 to 5 | 0.05 to 0.5 | 0.5 to 5 |
| Cc1cc(C(=O)NCC(=O)NC2CCCc3ccccc32)cc(C)c1OCc1ccccc1 (stereo not drawn) [Entry 20, 3,5-dimethyl-N-{2-oxo-2-(1,2,3,4-tetrahydronaphthalen-1-ylamino)ethyl]-4-[(phenylmethyl)oxy]benzamide] | 0.05 to 0.5 | 0.05 to 0.5 | 0.5 to 5 |
| O=C(CNC(=O)c1ccc(-c2ccccc2)cc1)NC1CCCc2ccccc21 (stereo not drawn) [Entry 43, N-[2-oxo-2-(1,2,3,4-tetrahydronaphthalen-1-ylamino)ethyl]biphenyl-4-carboxamide] | < 0.05 | < 0.05 | < 0.05 |
| CCCCOc1ccc(C(=O)NC(C)C(=O)NC2CCc3ccccc3C2)cc1 (stereo not drawn) [Entry 18, 4-(butyloxy)-N-[1-methyl-2-oxo-2-(1,2,3,4-tetrahydronaphthalen-2-ylamino)ethyl]benzamide] | 0.05 to 0.5 | 0.05 to 0.5 | 0.5 to 5 |
| O=C(NCC1COc2ccccc2O1)c1ccc2c(c1)NC(=O)c1ccccc1N2 (stereo not drawn) [Entry 42, N-(2,3-dihydro-1,4-benzodioxin-2-ylmethyl)-11-oxo-10,11-dihydro-5H-dibenzo[b,e][1,4]diazepine-8-carboxamide] | 0.05 to 0.5 | < 0.05 | 0.05 to 0.5 |
